Source: patent US9381173B2, “Isolated stereoisomeric forms of (S)2-N(3-O-(propan 2-Ol)-1-propyl-4-hydroxybenzene)-3-phenylpropylamide” (Novaremed Ltd., priority 2011, dated 2016)

System: tail flick model for nociceptive pain in mice
Assay: Tail flick test for nociceptive pain
Assay type: in vivo
Settings: for Mean latency time Post-treatment: 30 minutes after administration; for Mean latency time Pre-treatment: baseline a day before
Description: In the present study the analgesic effect of the substantially pure enantiomers E1 and E2 was evaluated using the tail flick model for nociceptive pain in mice.
The experiment was performed using male ICR strain 7 weeks old mice (25-27 g) (supplied by Harlan Israel, Ltd.)
Response to pain was assessed using the tail flick method which utilizes an Ugo Basile tail flick instrument. The animal is placed and held gently on the Ugo Basile tail flick (TF) instrument surface with the tail straight back and above a photoelectric cell that served as heat source. The heat source and timer are turned on by a foot pedal press, and automatically switch off when the animal flicks its tail off the emitter. Latency is measured and analyzed as an analgesic effect.
Description of the Study: The baseline tail flick was measured a day before the experiment started. On the day of the experiment, animal body weights were first measured followed by the IP administration of the test items (vehicle, morphine, NRD 13 S E1 and E2). 30 minutes after administration of the test items, the animals were subjected to the tail-flick testing. The tail-flick experiments were followed by blood sampling of all groups. The experiment was terminated after spinal cords and brains of all groups have been collected.
Statistics and Data Evaluation: All parameters are represented as means and standard error of the mean (SEM). Data was analyzed using a two tailed, unpaired T-test to compare each treatment group to the Vehicle treated animals. A two-tailed, paired T-test was used to compare the pre-treatment and post-treatment of each treatment group. Probability values p<0.01 and p<0.05 are considered significant.

SMILES: CC(O)COCC(Cc1ccc(O)cc1)NC(=O)CCc1ccccc1 (single isomer, unassigned) [E1]
- increase of latency time between pretreatment and post treatment (3 mg/kg IP): not statistically significant
- reducing pain when compared to the Vehicle (3 mg/kg IP): not significantly active in reducing pain
- Mean latency time Post-treatment (3 mg/kg IP (group 3)): 9.53 ± 0.85 s
- Mean latency time Pre-treatment (3 mg/kg IP (group 3)): 7.62 ± 0.74 s
- Mean latency time Post-treatment (10 mg/kg IP (groups 4, 6)): 10.63 ± 0.64 s
- Mean latency time Pre-treatment (10 mg/kg IP (groups 4, 6)): 8.16 ± 0.39 s
- Mean latency time Post-treatment (20 mg/kg IP (group 5)): 10.65 ± 0.81 s
- Mean latency time Pre-treatment (20 mg/kg IP (group 5)): 7.58 ± 0.41 s
- conclusion: pain relief activity (dose of 3 mg/kg): significant pain relief activity only in the calculated difference
- conclusion: reducing pain compared to the Vehicle treated group (doses of 10 mg/kg and 20 mg/kg): active in reducing pain
- pain relief activity by difference between pre- and post-treatment latency times vs. Vehicle (in particular at doses of 10 and 20 mg/kg (p<0.01)): significant pain relief activity
- pain analgesic in animal models of pain (summary statement, listed as (S,S) enantiomer): effective
